Assay results as given in US5364944A, “Substituted benzoylbenzene-, biphenyl- and 2-oxazole- alkanoic acid compounds” (American Home Products Corporation, priority 1993, dated 1994).
Where a name gives a salt, the structure may show the parent alone.

System: 5-lipoxygenase in human whole blood
Assay: Inhibition of 5-lipoxygenase in human whole blood (LTB4)
Format: cell-based
Protocol: The assay of this Example measures the ability of the compounds tested to inhibit 5-lipoxygenase in human whole blood.
This assay is carried out as follows:
Blood is obtained in 50-100 ml quantities from male donors. White blood cell counts and differentials are made. Two ml of blood are placed in a 15 ml polypropylene test tube. Compounds are solubilized in dimethylsulfoxide and diluted 1:10 in 10% bovine serum albumin in phosphate buffered saline, pH 7.4 resulting in a final dimethylsulfoxide concentration of 0.1% in the blood. Then, compounds are added to the blood in a shaking water bath at 37° C. for 10 minutes prior to the addition of 30 μM calcium ionophore (A23187; Sigma). After ionophore administration, whole blood samples are mixed and incubated for 20 minutes at […] in a shaking water bath. Incubation is terminated by placing samples in an ice bath and immediately adding ethylene glycol-bis-(β-aminoethyl ether)-N,N,N',N'-tetraacetic acid (10 mM). Samples are mixed and centrifuged at 1200×g for 15 minutes at 4° C. Preparation of samples for evaluation by RIA or ELISA is carried out by the following protocol. Plasma is removed from sample tubes, placed in 15 ml polypropylene test tubes containing 8 ml methanol, and then vortexed to precipitate protein. Samples are stored at -70° C. overnight. The next day, samples are centrifuged at 200×g for 15 minutes at 4° C. to pellet the precipitate. Samples are dried in a Savant speed vac concentrator, reconstituted to original volume with ice cold RIA or ELISA buffer, and stored at -70° C. until assayed. The assay for eicosanoids (LTB4, TxB2, and PGE2) is performed as described by the manufacturer of the [^3 H]-RIA kit or ELISA kit (LTB4 -Amersham, TxB2 and PGE2 - Caymen Chemical).
The total eicosanoid level in 2 ml of blood is calculated and reported as ng/10^6 neutrophils. […] Drug effects are expressed as percent change from control values.
Compounds tested in vitro are solubilized in dimethylsulfoxide and diluted 1:10 in 10% bovine serum albumin in phosphate buffer saline resulting in a final dimethylsulfoxide concentration of 0.1% in the blood.

Q: For `CN(O)C(=O)Cc1ccc(-c2ccc(OCc3ccc4ccccc4n3)cc2)c(F)c1` [Example 8, N-Hydroxy-N-methyl-2-fluoro-4'-(2-quinolinylmethoxy)-[1,1'-biphenyl]-4-acetamide], which IC50 is on record?
A: 530 nM

Q: And the “% Inhibition of LTB4” value (at 25 μM)?
A: 94%

Q: For `CN(O)C(=O)Cc1ccc(-c2ccc(OCc3csc(-c4ccccc4)n3)cc2)cc1` [Example 19, N-Hydroxy-N-methyl-4'-[(2-phenylthiazol-4-yl)methoxy][1,1'-biphenyl]-4-acetamide, sodium salt, sesquihydrate], which “% Inhibition of LTB4” value (at 25 μM, sodium salt, sesquihydrate) is on record?
A: 83%

Q: How did the IC50 turn out when `CN(O)C(=O)Cc1ccc(-c2ccc(OCc3csc(-c4ccccc4)n3)cc2)c(F)c1` [Example 27] was run?
A: 1300 nM

Q: And the “% Inhibition of LTB4” value (at 25 μM)?
A: 69%

Q: For `CC(=O)N(O)C(C)c1ccc(-c2ccc(OCc3nc4ccccc4o3)cc2)cc1` (stereo not drawn) [Example 36, N-{1-[4'-(Benzoxazol-2-ylmethoxy)-biphenyl-4-yl]ethyl}-N-hydroxy-acetamide], which “% Inhibition of LTB4” value (at 10 μM) is on record?
A: 77%

Q: Which “% Inhibition of LTB4” value (at 10 μM) does the source give for `CC(c1ccc(-c2ccc(OCc3csc(-c4ccccc4)n3)cc2)cc1)N(O)C(N)=O` (stereo not drawn) [Example 38, 1-{1-[4'-(2-Phenylthiazol-4-ylmethoxy)-biphenyl4-yl]-ethyl}-1-hydroxy-urea] here?
A: 46%

Q: With `CC(=O)N(O)C(C)c1ccc(-c2ccc(OCc3csc(-c4ccccc4)n3)cc2)cc1` (stereo not drawn) [Example 39, N-{1-[4'-(2-Phenylthiazol-4-ylmethoxy)-biphenyl-4-yl]-ethyl}-N-hydroxy-acetamide] as the molecule, how does the “% Inhibition of LTB4” value (at 10 μM) read?
A: 43%

Q: For `CC(c1ccc(-c2ccc(OCc3nc4ccccc4s3)cc2)c(F)c1)N(O)C(N)=O` (stereo not drawn) [Example 40, 1-{1-[4'-(Benzothiazol-2-ylmethoxy)-2-fluoro(1,1'-biphenyl)-4-yl]ethyl}-1-hydroxy-urea], which “% Inhibition of LTB4” value (at 10 μM) is on record?
A: 47%
